Where a SMILES comes first, the peptide text is derived from it. The star is where a group is joined. Cam = NC(=O)C*
What was measured:
[1] = test system: Human immunodeficiency virus 1; test: Antiviral activity against X4 tropic HIV1 NL4-3 in MT4 cells assessed as protection from virus-induced cytopathogenicity after 5 days by MTT assay; format: functional, organism-based; settings: Human immunodeficiency virus 1, NL4-3, MT4, 120 h
[2] = test system: Human immunodeficiency virus 1; test: Antiviral activity against R5 tropic HIV1 JR-CSF in PM1/CCR5 cells assessed as protection from virus-induced cytopathogenicity measuring capsid p24 level after 5 days by ELISA; format: functional, cell-based; settings: Human immunodeficiency virus 1, JRCSF ISOLATE, PM1/CCR5, 120 h
[3] = test system: Human immunodeficiency virus 1; test: Antiviral activity against R5 tropic HIV1 NL(AD8) in PM1/CCR5 cells assessed as protection from virus-induced cytopathogenicity after 5 days by MTT assay; format: functional, organism-based; settings: Human immunodeficiency virus 1, NL(AD8), PM1/CCR5, 120 h
[4] = Cytotoxicity against human MT4 cells after 5 days by MTT assay; format: cell-based
[5] = test system: Human immunodeficiency virus 1; test: Antiviral activity against R5 tropic HIV1 NL(AD8) in PM1/CCR5 cells assessed as protection from virus-induced cytopathogenicity at 50 uM after 5 days by MTT assay; format: functional; settings: Human immunodeficiency virus 1, NL(AD8), PM1/CCR5, 120 h

| Structure (SMILES) | EC50 [1] | EC50 [2] | EC50 [3] | CC50 at 120 h [4] | inhibition at 50 µM [5] |
| --- | --- | --- | --- | --- | --- |
| CC(=O)N[C@@H](CC(=O)O)C(=O)N[C@H](C(=O)NCC(=O)N[C@@H](CC(N)=O)C(=O)N[C@@H](CC(N)=O)C(=O)N[C@@H](CO)C(=O)N[C@@H](CCC(N)=O)C(=O)N[C@H](C(=O)N[C@@H](CO)C(=O)N[C@@H](CCC(N)=O)C(=O)N[C@@H](CC(N)=O)C(=O)N[C@@H](Cc1ccc(O)cc1)C(=O)NCC(=O)N[C@@H](CSCC(=O)N[C@@H](CCCNC(=N)N)C(=O)N[C@@H](CCCNC(=N)N)C(=O)N[C@@H](CCCNC(=N)N)C(=O)N[C@@H](CCCNC(=N)N)C(=O)N[C@@H](CCCNC(=N)N)C(=O)N[C@@H](CCCNC(=N)N)C(=O)N[C@@H](CCCNC(=N)N)C(=O)N[C@@H](CCCNC(=N)N)C(N)=O)C(N)=O)C(C)C)[C@@H](C)O | 20 µM | 11 µM | 0.43 µM | > 50 µM |  |
| CC(=O)N[C@@H](CO)C(=O)N[C@@H](CCCCN)C(=O)N[C@@H](CCCCN)C(=O)N[C@@H](CCCCN)C(=O)N[C@@H](C)C(=O)N[C@@H](CCC(N)=O)C(=O)N[C@@H](CCC(N)=O)C(=O)N[C@@H](C)C(=O)N[C@@H](C)C(=O)N[C@@H](C)C(=O)N[C@@H](CC(=O)O)C(=O)N[C@H](C(=O)NCC(=O)N[C@@H](CC(N)=O)C(=O)N[C@@H](CC(N)=O)C(=O)NCC(=O)N[C@@H](CSCC(N)=O)C(N)=O)[C@@H](C)O | > 50 µM |  |  | > 50 µM |  |
| CSCC[C@H](N)C(=O)NCC(=O)N[C@@H](C)C(=O)N[C@@H](CCCNC(=N)N)C(=O)N[C@@H](C)C(=O)N[C@@H](CO)C(=O)N[C@H](C(=O)N[C@@H](CC(C)C)C(=O)N[C@@H](CO)C(=O)NCC(=O)NCC(=O)N[C@@H](CCC(=O)O)C(=O)N[C@@H](CC(C)C)C(=O)N[C@@H](CC(=O)O)C(=O)N[C@@H](CCCCN)C(=O)NCC(=O)N[C@@H](CSCC(N)=O)C(N)=O)C(C)C (H-MGARASVLSGGELDKGC(Cam)-NH2) | > 50 µM |  |  | > 50 µM |  |
| CC[C@H](C)[C@H](NC(=O)[C@H](CCC(N)=O)NC(=O)[C@H](CCCNC(=N)N)NC(=O)[C@H](CO)NC(=O)CNC(=O)[C@H](CCC(=O)O)NC(=O)[C@H](CO)NC(=O)[C@@H](NC(=O)[C@H](CCC(=O)O)NC(=O)[C@H](CC(C)C)NC(C)=O)[C@@H](C)O)C(=O)N[C@@H](CC(C)C)C(=O)NCC(=O)N[C@@H](CCC(N)=O)C(=O)N[C@@H](CC(C)C)C(=O)N[C@@H](CCC(N)=O)C(=O)NCC(=O)N[C@@H](CSCC(=O)N[C@@H](CCCNC(=N)N)C(=O)N[C@@H](CCCNC(=N)N)C(=O)N[C@@H](CCCNC(=N)N)C(=O)N[C@@H](CCCNC(=N)N)C(=O)N[C@@H](CCCNC(=N)N)C(=O)N[C@@H](CCCNC(=N)N)C(=O)N[C@@H](CCCNC(=N)N)C(=O)N[C@@H](CCCNC(=N)N)C(N)=O)C(N)=O | 40 µM | 31 µM |  | > 50 µM | 49% |
| Cc1cn([C@H]2C[C@H](N=[N+]=[N-])[C@@H](CO)O2)c(=O)[nH]c1=O [ZIDOVUDINE] | 0.02 µM | 0.17 µM | 0.459 µM | > 100 µM |  |
| CC[C@H](C)[C@H](NC(=O)[C@H](Cc1cnc[nH]1)NC(=O)[C@H](CCCCN)NC(=O)[C@H](CC(C)C)NC(=O)[C@H](CCCCN)NC(=O)[C@H](Cc1ccc(O)cc1)NC(=O)[C@H](CCC(N)=O)NC(=O)[C@H](CCC(=O)O)NC(=O)[C@H](Cc1c[nH]c2ccccc12)NC(=O)[C@H](CCCCN)NC(=O)[C@H](CC(=O)O)NC(=O)[C@H](CC(C)C)NC(=O)[C@H](CCC(=O)O)NC(=O)CNC(C)=O)C(=O)N[C@H](C(=O)NCC(=O)N[C@@H](CSCC(N)=O)C(N)=O)C(C)C (Ac-GELDKWEQYKLKHIVGC(Cam)-NH2) | > 50 µM |  |  | > 50 µM |  |
| CC(=O)N[C@@H](CC(C)C)C(=O)N[C@@H](CCC(=O)O)C(=O)N[C@@H](CCCNC(=N)N)C(=O)N[C@@H](Cc1ccccc1)C(=O)N[C@@H](C)C(=O)N[C@H](C(=O)N[C@@H](CC(N)=O)C(=O)N1CCC[C@H]1C(=O)NCC(=O)N[C@@H](CC(C)C)C(=O)N[C@@H](CC(C)C)C(=O)N[C@@H](CCC(=O)O)C(=O)N[C@H](C(=O)N[C@@H](CO)C(=O)N[C@@H](CCC(=O)O)C(=O)NCC(=O)N[C@@H](CSCC(N)=O)C(N)=O)[C@@H](C)O)C(C)C (Ac-LERFAVNPGLLETSEGC(Cam)-NH2) | > 50 µM |  |  | > 50 µM |  |
| CC[C@H](C)[C@H](NC(=O)[C@H](Cc1cnc[nH]1)NC(=O)[C@H](CCCCN)NC(=O)[C@H](CC(C)C)NC(=O)[C@H](CCCCN)NC(=O)[C@H](Cc1ccc(O)cc1)NC(=O)[C@H](CCC(N)=O)NC(=O)[C@H](CCCCN)NC(=O)[C@H](CCCCN)NC(=O)CNC(=O)CNC(=O)[C@@H]1CCCN1C(=O)[C@H](CCCNC(=N)N)NC(=O)[C@H](CC(C)C)NC(C)=O)C(=O)N[C@H](C(=O)NCC(=O)N[C@@H](CSCC(N)=O)C(N)=O)C(C)C | > 50 µM |  |  | > 50 µM |  |
| CSCC[C@H](N)C(=O)NCC(=O)N[C@@H](C)C(=O)N[C@@H](CCCNC(=N)N)C(=O)N[C@@H](C)C(=O)N[C@@H](CO)C(=O)N[C@H](C(=O)N[C@@H](CC(C)C)C(=O)N[C@@H](CO)C(=O)NCC(=O)NCC(=O)N[C@@H](CCC(=O)O)C(=O)N[C@@H](CC(C)C)C(=O)N[C@@H](CC(=O)O)C(=O)N[C@@H](CCCCN)C(=O)NCC(=O)N[C@@H](CSCC(=O)N[C@@H](CCCNC(=N)N)C(=O)N[C@@H](CCCNC(=N)N)C(=O)N[C@@H](CCCNC(=N)N)C(=O)N[C@@H](CCCNC(=N)N)C(=O)N[C@@H](CCCNC(=N)N)C(=O)N[C@@H](CCCNC(=N)N)C(=O)N[C@@H](CCCNC(=N)N)C(=O)N[C@@H](CCCNC(=N)N)C(N)=O)C(N)=O)C(C)C | 30 µM | 40 µM | 30 µM | > 50 µM |  |
| CC(=O)N[C@@H](CC(C)C)C(=O)NCC(=O)N[C@@H](CCC(N)=O)C(=O)N[C@@H](CC(C)C)C(=O)N[C@@H](CCC(N)=O)C(=O)N1CCC[C@H]1C(=O)N[C@@H](CO)C(=O)N[C@@H](CC(C)C)C(=O)N[C@@H](CCC(N)=O)C(=O)N[C@H](C(=O)NCC(=O)N[C@@H](CO)C(=O)N[C@@H](CCC(=O)O)C(=O)N[C@@H](CCC(=O)O)C(=O)N[C@@H](CC(C)C)C(=O)NCC(=O)N[C@@H](CSCC(N)=O)C(N)=O)[C@@H](C)O (Ac-LGQLQPSLQTGSEELGC(Cam)-NH2) | > 50 µM |  |  | > 50 µM |  |
| CC[C@H](C)[C@H](NC(=O)[C@H](CCCCN)NC(=O)[C@H](CCC(=O)O)NC(=O)[C@H](Cc1c[nH]c2ccccc12)NC(=O)[C@H](CCCCN)NC(=O)[C@H](CC(=O)O)NC(=O)[C@H](CC(C)C)NC(=O)[C@H](CCC(=O)O)NC(=O)CNC(C)=O)C(=O)N[C@@H](CCCNC(=N)N)C(=O)N[C@@H](CC(C)C)C(=O)N[C@@H](CCCNC(=N)N)C(=O)N1CCC[C@H]1C(=O)NCC(=O)NCC(=O)NCC(=O)N[C@@H](CSCC(=O)N[C@@H](CCCNC(=N)N)C(=O)N[C@@H](CCCNC(=N)N)C(=O)N[C@@H](CCCNC(=N)N)C(=O)N[C@@H](CCCNC(=N)N)C(=O)N[C@@H](CCCNC(=N)N)C(=O)N[C@@H](CCCNC(=N)N)C(=O)N[C@@H](CCCNC(=N)N)C(=O)N[C@@H](CCCNC(=N)N)C(N)=O)C(N)=O | 21 µM |  | > 31 µM | 32 µM |  |
| CC[C@H](C)[C@H](NC(=O)[C@H](CCCCN)NC(=O)[C@H](CCC(=O)O)NC(=O)[C@H](Cc1c[nH]c2ccccc12)NC(=O)[C@H](CCCCN)NC(=O)[C@H](CC(=O)O)NC(=O)[C@H](CC(C)C)NC(=O)[C@H](CCC(=O)O)NC(=O)CNC(C)=O)C(=O)N[C@@H](CCCNC(=N)N)C(=O)N[C@@H](CC(C)C)C(=O)N[C@@H](CCCNC(=N)N)C(=O)N1CCC[C@H]1C(=O)NCC(=O)NCC(=O)NCC(=O)N[C@@H](CSCC(N)=O)C(N)=O | 17 µM |  | 1 µM | > 50 µM |  |
| CC[C@H](C)[C@H](NC(=O)[C@H](CCCCN)NC(=O)[C@H](CC(=O)O)NC(=O)[C@H](CC(C)C)NC(=O)[C@H](C)NC(=O)[C@H](CCC(=O)O)NC(=O)[C@H](CCCCN)NC(=O)[C@@H](NC(=O)[C@H](CC(=O)O)NC(=O)[C@H](CCCCN)NC(=O)[C@@H](NC(=O)[C@H](CC(=O)O)NC(=O)[C@@H](NC(=O)[C@H](CCCNC(=N)N)NC(C)=O)[C@@H](C)CC)C(C)C)[C@@H](C)O)C(=O)N[C@@H](CCC(=O)O)C(=O)NCC(=O)N[C@@H](CSCC(=O)N[C@@H](CCCNC(=N)N)C(=O)N[C@@H](CCCNC(=N)N)C(=O)N[C@@H](CCCNC(=N)N)C(=O)N[C@@H](CCCNC(=N)N)C(=O)N[C@@H](CCCNC(=N)N)C(=O)N[C@@H](CCCNC(=N)N)C(=O)N[C@@H](CCCNC(=N)N)C(=O)N[C@@H](CCCNC(=N)N)C(N)=O)C(N)=O | 43 µM | 27 µM |  | > 50 µM | 42% |
| CC[C@H](C)[C@H](NC(=O)[C@H](CCCCN)NC(=O)[C@H](CC(=O)O)NC(=O)[C@H](CC(C)C)NC(C)=O)C(=O)N[C@@H](CCC(=O)O)C(=O)N[C@@H](CCC(=O)O)C(=O)N[C@@H](CCC(=O)O)C(=O)N[C@@H](CCC(N)=O)C(=O)N[C@@H](CC(N)=O)C(=O)N[C@@H](CCCCN)C(=O)N[C@@H](CO)C(=O)N[C@@H](CCCCN)C(=O)N[C@@H](CCCCN)C(=O)N[C@@H](CCCCN)C(=O)N[C@@H](C)C(=O)NCC(=O)N[C@@H](CSCC(N)=O)C(N)=O (Ac-LDKIEEEQNKSKKKAGC(Cam)-NH2) | > 50 µM |  |  | > 50 µM |  |
| COC[C@@H](c1ccc(C(F)(F)F)cc1)N1CCN(C2(C)CCN(C(=O)c3c(C)ncnc3C)CC2)C[C@@H]1C [VICRIVIROC] |  | 0.0014 µM | 0.026 µM |  |  |

Reference: ChEMBL document CHEMBL1944566, “Conjugation of cell-penetrating peptides leads to identification of anti-HIV peptides from matrix proteins” (Bioorg Med Chem, 2012)
